Results from patent publication US9512065B2, “Polymorphs of N-[(R)-1-[(S)-1-(4-aminomethyl-benzylcarbamoyl)-2-phenyl-ethylcarbamoyl]-2-(4-ethoxy-phenyl)-ethyl]-benzamide hydrochloride” (Kalvista Pharmaceuticals Limited, priority 2012, dated 2016).
Structures can show the parent of a compound that is named as a salt.

Assays:
[1] = test system: diabetic rats; settings: cited from earlier work
[2] = biological target: Human plasma kallikrein (Homo sapiens (Human), UniProt P03952); test: Determination of the Ki for plasma kallikrein; assay type: biochemical; settings: 37° C., fluorogenic substrate H-DPro-Phe-Arg-AFC; read-out: Ki (human Pkal)
Experimental: Determination of the Ki for Plasma Kallikrein
Plasma kallikrein inhibitory activity in vitro was determined using standard published methods (see e.g. Johansen et al., Int. J. Tiss. Reac. 1986, 8, 185; Shori et al., Biochem. Pharmacol., 1992, 43, 1209; Stürzebecher et al., Biol. Chem. Hoppe-Seyler, 1992, 373, 1025). Human plasma kallikrein (Protogen) was incubated at 37° C. with the fluorogenic substrate H-DPro-Phe-Arg-AFC and various concentrations of the test compound. Residual enzyme activity (initial rate of reaction) was determined by measuring the change in […] at 410 nm and the Ki value for the test compound was determined.

[3] = biological target: Human KLK1 (Homo sapiens (Human), UniProt P06870); test: Determination of the IC50 for KLK1; assay type: biochemical; settings: 37° C., fluorogenic substrate H-DVal-Leu-Arg-AFC
Experimental: Determination of the IC50 for KLK1
Human KLK1 (Callbiochem) was incubated at 37° C. with the fluorogenic substrate H-DVal-Leu-Arg-AFC and various concentrations of the test compound. Residual enzyme activity (initial rate of reaction) was determined by measuring the change in optical absorbance at 410 nm and the IC50 value for the test compound was determined.

[4] = Gravimetric vapour sorption (GVS); assay type: physicochemical
Experimental: Gravimetric Vapour Sorption
Sorption isotherms were obtained using a Hiden Isochema moisture sorption analyser (model IGAsorp), controlled by IGAsorp Systems Software V6.50.48. The sample was maintained at a constant temperature (25° C.) by the instrument controls. The humidity was controlled by mixing streams of dry and wet nitrogen, with a total flow of 250 ml·min-1. The instrument was verified for relative humidity content by measuring three calibrated Rotronic salt solutions (10-50-88%). The weight change of the sample was monitored as a function of humidity by a microbalance (accuracy +/−0.005 mg). A defined amount of sample was placed in a tared mesh stainless steel basket under ambient conditions. A full experimental cycle consisted of three scans (sorption, desorption and sorption) at a constant temperature (25° C.) and 10% RH intervals over a 0-90% range (60 minutes for each humidity level).

[5] = Storage stability at 40° C. and 75% relative humidity for 6 months; assay type: physicochemical
Description: Further evidence of the suitability of the crystalline forms for pharmaceutical development is provided by the following stability data.

[6] = biological target: thrombin (Homo sapiens (Human), UniProt P00734); test: Determination of enzyme selectivity: thrombin; assay type: biochemical; settings: substrate at Km concentration
Description: (§1) Determination of Enzyme Selectivity

[7] = biological target: Factor Xa (Homo sapiens (Human), UniProt P00742); test: Determination of enzyme selectivity: Factor Xa; assay type: biochemical; settings: substrate at Km concentration
Description: as §1

[8] = biological target: Factor XIIa (Homo sapiens (Human), UniProt P00748); test: Determination of enzyme selectivity: Factor XIIa; assay type: biochemical; settings: substrate at Km concentration
Description: as §1

[9] = test system: CA-I stimulated RVP in Sprague Dawley rats; test: Carbonic anhydrase I induced retinal vascular permeability model; assay type: in vivo; settings: rat
Experimental: Carbonic Anhydrase I Induced Retinal Vascular Permeability Model
After 30 mins, a second intravitreal injection (5 μL) of PBS or CA-I (200 ng/eye) was given. After 15 minutes, 10% sodium fluorescein was infused and retinal vascular permeability (RVP) was measured by vitreous fluorophotometry 75 minutes following the initial IVT injections. […] Intravitreal injection of N—[(R)-1-[(S)-1-(4-amino methyl-benzylcarbamoyl)-2-phenyl-ethylcarbamoyl]-2-(4-ethoxy-phenyl)-ethyl]-benzamide hydrochloride reduced RVP (stimulated by CA-I injection) by 53±21%.

[10] = Ocular and systemic pharmacokinetics following a single IVT dose; assay type: in vivo, rabbit; settings: Dutch-belted rabbits
Experimental: A pharmacokinetic study of N—[(R)-1-[(S)-1-(4-aminomethyl-benzylcarbamoyl)-2-phenyl-ethylcarbamoyl]-2-(4-ethoxy-phenyl)-ethyl]-benzamide hydrochloride was performed to assess the ocular and systemic pharmacokinetics following a single IVT dose in pigmented (Dutch-belted) rabbits. […] Serial blood samples were collected in surviving rabbits.

Chain of Human plasma kallikrein (P03952 391-638): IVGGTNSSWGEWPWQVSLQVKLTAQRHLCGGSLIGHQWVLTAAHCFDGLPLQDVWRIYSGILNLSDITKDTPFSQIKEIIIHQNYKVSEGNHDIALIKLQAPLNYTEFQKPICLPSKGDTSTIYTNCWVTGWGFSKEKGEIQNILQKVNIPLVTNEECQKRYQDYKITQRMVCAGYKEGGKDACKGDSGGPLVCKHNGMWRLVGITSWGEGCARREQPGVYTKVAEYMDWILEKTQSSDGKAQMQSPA
Chain of Human plasma kallikrein (P03952 20-390 partner): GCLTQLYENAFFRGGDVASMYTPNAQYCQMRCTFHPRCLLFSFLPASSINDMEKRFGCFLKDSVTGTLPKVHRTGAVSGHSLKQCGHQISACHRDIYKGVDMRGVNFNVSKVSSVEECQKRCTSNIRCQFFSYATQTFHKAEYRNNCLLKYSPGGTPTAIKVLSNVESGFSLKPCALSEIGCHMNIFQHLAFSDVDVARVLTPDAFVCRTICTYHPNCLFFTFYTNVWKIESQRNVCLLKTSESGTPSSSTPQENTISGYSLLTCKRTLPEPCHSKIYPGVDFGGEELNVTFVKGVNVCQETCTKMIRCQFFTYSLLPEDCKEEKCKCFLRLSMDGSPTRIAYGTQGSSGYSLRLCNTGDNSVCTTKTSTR
Chain of Factor Xa (P00742 235-488): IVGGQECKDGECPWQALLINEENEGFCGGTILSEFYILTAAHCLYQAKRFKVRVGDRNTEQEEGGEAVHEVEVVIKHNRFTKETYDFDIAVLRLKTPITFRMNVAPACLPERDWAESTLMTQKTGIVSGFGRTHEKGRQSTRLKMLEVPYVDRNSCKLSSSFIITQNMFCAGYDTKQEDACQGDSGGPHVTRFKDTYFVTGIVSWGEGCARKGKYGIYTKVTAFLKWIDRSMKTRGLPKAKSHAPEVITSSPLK
Chain of Factor Xa (P00742 41-179 partner): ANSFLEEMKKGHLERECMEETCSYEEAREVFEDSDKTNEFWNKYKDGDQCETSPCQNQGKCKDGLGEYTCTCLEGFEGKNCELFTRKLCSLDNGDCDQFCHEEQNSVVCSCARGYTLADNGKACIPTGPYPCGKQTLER
Chain of Human KLK1 (P06870 25-262): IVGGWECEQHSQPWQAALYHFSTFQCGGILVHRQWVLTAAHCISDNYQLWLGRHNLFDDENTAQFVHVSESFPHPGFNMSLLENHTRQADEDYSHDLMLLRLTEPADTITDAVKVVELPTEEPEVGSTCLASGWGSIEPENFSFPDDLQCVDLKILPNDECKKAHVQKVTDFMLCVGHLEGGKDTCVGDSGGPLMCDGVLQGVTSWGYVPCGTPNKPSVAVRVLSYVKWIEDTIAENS
Chain of Factor XIIa (P00748 373-615): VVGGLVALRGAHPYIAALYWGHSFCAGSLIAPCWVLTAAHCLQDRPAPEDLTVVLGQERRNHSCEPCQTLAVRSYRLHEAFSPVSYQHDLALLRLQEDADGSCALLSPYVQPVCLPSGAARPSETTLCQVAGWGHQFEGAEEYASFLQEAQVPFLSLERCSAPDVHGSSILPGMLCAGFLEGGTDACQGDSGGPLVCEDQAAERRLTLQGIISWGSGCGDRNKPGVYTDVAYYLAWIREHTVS

For N=C(N)c1ccc(CNC(=O)c2cnn(Cc3ccccc3)c2)cc1 [ASP-440], the “retinal vascular permeability and retinal blood flow abnormalities” value [1] is listed as “ameliorated”.

For CCOc1ccc(C[C@@H](NC(=O)c2ccccc2)C(=O)N[C@@H](Cc2ccccc2)C(=O)NCc2ccc(CN)cc2)cc1 [Form 1, N—[(R)-1-[(S)-1-(4-aminomethyl-benzylcarbamoyl)-2-phenyl-ethylcarbamoyl]-2-(4-ethoxy-phenyl)-ethyl]-benzamide hydrochloride], the Ki [2] was 0.01 µM, the IC50 [3] was > 10 µM and the “hydration (GVS)” value ([4]; 25° C., sorption, desorption and sorption, 0-90% RH) was “reversible”. For the same compound, the hygroscopicity ([4]; GVS data) was “absence of significant hygroscopicity”, the “increase in water content (GVS)” value ([4]; normal conditions, 20% to 80% relative humidity) was “only a relatively gradual increase” and the “chemical degradation on storage” value ([5]; 6 months) was “no significant chemical degradation”. The “purity (HPLC) on storage” value ([5]; 6 months) was 99.8 % area, the “change to the XRPD diffractogram on storage” value ([5]; 6 months, double polyethylene bags in polypropylene container) was “no change” and the “water content (Karl Fischer) on storage” value ([5]; after one month and thereafter up to 6 months) was 2.5%-2.8%.

In the case of CCOc1ccc(C[C@@H](NC(=O)c2ccccc2)C(=O)N[C@@H](Cc2ccccc2)C(=O)NCc2ccc(CN)cc2)cc1 [N—[(R)-1-[(S)-1-(4-aminomethyl-benzylcarbamoyl)-2-phenyl-ethylcarbamoyl]-2-(4-ethoxy-phenyl)-ethyl]-benzamide hydrochloride], the IC50 [6] is reported as > 40 µM, the IC50 [7] is reported as > 10 µM and the IC50 [8] is reported as > 10 µM. The “reduction of RVP stimulated by CA-I injection” value ([9]; intravitreal injection 5 μL of 1 μM, CA-I 200 ng/eye after 30 mins) was 53±21%, the “basal RVP” value ([9]; intravitreal injection of 1 μM alone (no CA-I), no effect compared to PBS alone, vitreous fluorophotometry at 75 minutes) was 3.29±0.21 and the “decline in ocular tissue concentrations” value ([10]; single IVT 210 ng per eye, vitreous, retina/choroid, aqueous humour, over 7 days) was “minimal”. The “plasma concentrations following IVT administration” value ([10]; single bilateral IVT 210 ng per eye, all time points) was “below 1 ng/mL”.
